Here are results for 18 compounds from US20240132464A1, “HETEROCYCLIC COMPOUNDS AS E3 LIGASE INHIBITORS” (Accutar Biotechnology Inc., priority 2022, published 2024).

pIC50: −log10 of the molar value.

The target of the test is T1, GID4 (Uniprot ID: Q81VV7, residues 124-289) (Homo sapiens, UniProt Q8IVV7).
T1 construct: GID4 (Uniprot ID: Q81VV7, residues 124-289)
T1 sequence (Q8IVV7 124-289): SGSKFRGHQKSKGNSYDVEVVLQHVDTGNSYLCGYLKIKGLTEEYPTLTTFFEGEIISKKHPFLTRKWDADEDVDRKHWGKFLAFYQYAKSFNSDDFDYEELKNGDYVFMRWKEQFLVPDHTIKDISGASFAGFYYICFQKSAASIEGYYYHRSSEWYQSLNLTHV
The test can be described thus: GID4 competitive binding assay (AlphaScreen, GID4/degron peptide PGLW). The following applies: 24 nM GID4, 48 nM biotinylated degron peptide PGLW, 4° C., read-out: IC50 (Inhibition of GID4/Degron binding by test compounds). The essentials:
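Displacement of biotin-tagged degron tetrapeptide PGLW (48 nM) from C-terminally 6His-tagged GID4 124-289 (24 nM) read by AlphaScreen proximity signal. Compound incubation 2 h, then beads 1 h, all at 4 °C, pH 7.5, 2% DMSO final; background-corrected inhibition fitted with variable slope for IC50.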
For orientation: Bead proximity is the source of the signal in Alpha formats.
For `Nc1nccc2ccc(N3CCC(C(=O)N4CCCC4)C3)cc12` (stereo not drawn) [Compound 354, (1-(1-aminoisoquinolin-7-yl)pyrrolidin-3-yl)(pyrrolidin-1-yl)methanone], the pIC50 was less than 5.30.
For the compound `CN(C)CCNC(=O)c1csc2ccc(-c3ccc4ccnc(N)c4c3)cc12` [Compound 355, 5-(1-aminoisoquinolin-7-yl)-N-(2-(dimethylamino)ethyl)benzo[b]thiophene-3-carboxamide], the pIC50 is 5.30 to 6.30.
On to `CN(C)CCNC(=O)c1cc2cc(-c3ccc4ccnc(N)c4c3)ccc2cn1` [Compound 356, 1′-amino-N-(2-(dimethylamino)ethyl)-[6,7′-biisoquinoline]-3-carboxamide], for which the pIC50 was more than 6.30.
Then `CN(C)CCCNC(=O)c1ccc2c(-c3ccc4ccnc(N)c4c3)csc2c1` [Compound 357, 3-(1-aminoisoquinolin-7-yl)-N-(3-(dimethylamino)propyl)benzo[b]thiophene-6-carboxamide], with 5.30 to 6.30; and `CN(C)CCCNC(=O)c1ccc2c(-c3ccc4ccnc(N)c4c3)c[nH]c2c1` [Compound 359, 3-(1-aminoisoquinolin-7-yl)-N-(3-(dimethylamino)propyl)-1H-indole-6-carboxamide], with 5.30 to 6.30; and `CN(C)CCNC(=O)c1c2cc(-c3ccc4ccnc(N)c4c3)ccc2nn1C` [Compound 360, 5-(1-aminoisoquinolin-7-yl)-N-(2-(dimethylamino)ethyl)-2-methyl-2H-indazole-3-carboxamide], with less than 5.30.
The value for `Nc1nccc2ccc(-c3ccc4[nH]ncc4c3)cc12` [Compound 361, 7-(1H-indazol-5-yl)isoquinolin-1-amine] was more than 6.30; that for `Nc1nccc2ccc(-c3ccc4[nH]cnc4c3)cc12` [Compound 362, 7-(1H-benzo[d]imidazol-5-yl)isoquinolin-1-amine] was 5.30 to 6.30; that for `CC1CNCCN1c1cc(-c2ccnn2C)c2ccnc(-c3ccn[nH]3)c2n1` (stereo not drawn) [Compound 363, 4-(1-methyl-1H-pyrazol-5-yl)-2-(2-methylpiperazin-1-yl)-8-(1H-pyrazol-5-yl)-1,7-naphthyridine] was less than 5.30.
Then `Cn1nccc1-c1cc(N2CC3CCC(C2)N3)nc2c(-c3cc[nH]n3)nccc12` [Compound 364, 2-(3,8-diazabicyclo[3.2.1]octan-3-yl)-4-(1-methyl-1H-pyrazol-5-yl)-8-(1H-pyrazol-3-yl)-1,7-naphthyridine], with less than 5.30.
Turning to `Cn1nccc1-c1cc(N2CC3CC(C2)N3)nc2c(-c3cc[nH]n3)nccc12` [Compound 365, 3-(4-(1-methyl-1H-pyrazol-5-yl)-8-(1H-pyrazol-3-yl)-1,7-naphthyridin-2-yl)-3,6-diazabicyclo[3.1.1]heptane], the pIC50 was 5.30 to 6.30.
Take `CC(C)c1cc(-c2cc(-c3ccnn3C)c3ccnc(-c4cc[nH]n4)c3n2)cc(N)n1` [Compound 366, 6-isopropyl-4-(4-(1-methyl-1H-pyrazol-5-yl)-8-(1H-pyrazol-3-yl)-1,7-naphthyridin-2-yl)pyridin-2-amine]: the pIC50 was 5.30 to 6.30.
The value for `CC(C)c1cc(-c2cc(-c3ccnn3C)c3cccc(-c4cc[nH]n4)c3n2)cc(N)n1` [Compound 367, 6-isopropyl-4-(4-(1-methyl-1H-pyrazol-5-yl)-8-(1H-pyrazol-3-yl)quinolin-2-yl)pyridin-2-amine] was 5.30 to 6.30.
Then `CC(C)c1cc(N2CCCC(c3cnc4ccccn34)C2)c2cc[nH]c2n1` (stereo not drawn) [Compound 370, 3-(1-(6-isopropyl-1H-pyrrolo[2,3-b]pyridin-4-yl)piperidin-3-yl)imidazo[1,2-a]pyridine], with more than 6.30; and `CC(C)c1nc(N2CCNC(c3cnc4ccccn34)C2)c2nc[nH]c2n1` (stereo not drawn) [Compound 373, 6-(3-(imidazo[1,2-a]pyridin-3-yl)piperazin-1-yl)-2-isopropyl-9H-purine], with more than 6.30; and `CC(C)c1nc(N2CCCC(c3cnc4ccccn34)C2)c2cc[nH]c2n1` (stereo not drawn) [Compound 374, 4-(3-(imidazo[1,2-a]pyridin-3-yl)piperidin-1-yl)-2-isopropyl-7H-pyrrolo[2,3-d]pyrimidine], with more than 6.30.
Then `CC(C)c1nc(N2CCNC(c3cnc4ccccn34)C2)c2cc[nH]c2n1` (stereo not drawn) [Compound 375, 4-(3-(imidazo[1,2-a]pyridin-3-yl)piperazin-1-yl)-2-isopropyl-7H-pyrrolo[2,3-d]pyrimidine], with more than 6.30; and `CC(C)c1nc(N2CCCC(c3cnc4ccccn34)C2)c2nc[nH]c2n1` (stereo not drawn) [Compound 376, 6-(3-(imidazo[1,2-a]pyridin-3-yl)piperidin-1-yl)-2-isopropyl-9H-purine], with more than 6.30.
